Laboratory results as given in paper PMC12431658, “Versatile roles of rubredoxin reductase of Pseudomonas aeruginosa TBCF10839 in virulence and stress protection” (PLOS Pathogens, 2025).

Molecular target: T1, rubredoxin reductase RubB (also RubR, RdxR) (Pseudomonas aeruginosa, UniProt Q9HTK9)
T1 construct: gene alkT; gene 1,155 bp
Assay: stopped-flow FAD fluorescence (excitation […] nm)
Format: biochemical
Conditions: pH 8.0, 0.1 M NaCl, 25 °C; reduction of bound FAD; no RubA2

T1 sequence (Q9HTK9 whole entry): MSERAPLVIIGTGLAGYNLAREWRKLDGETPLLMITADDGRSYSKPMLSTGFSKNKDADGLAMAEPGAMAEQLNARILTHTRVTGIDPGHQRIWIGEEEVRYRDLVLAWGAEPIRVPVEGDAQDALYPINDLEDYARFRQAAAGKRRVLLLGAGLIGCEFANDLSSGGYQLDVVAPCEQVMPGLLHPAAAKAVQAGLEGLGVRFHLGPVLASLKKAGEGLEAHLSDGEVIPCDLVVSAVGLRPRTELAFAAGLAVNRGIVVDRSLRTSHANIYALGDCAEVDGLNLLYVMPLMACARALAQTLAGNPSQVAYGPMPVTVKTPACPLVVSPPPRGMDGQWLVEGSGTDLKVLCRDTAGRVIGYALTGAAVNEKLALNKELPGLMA

## NC(=O)C1=CN([C@@H]2O[C@H](COP(=O)(O)OP(=O)(O)OC[C@H]3O[C@@H](n4cnc5c(N)ncnc54)[C@H](O)[C@@H]3O)[C@@H](O)[C@H]2O)C=CC1 [NADH]
  stopped-flow FAD fluorescence (excitation 436 nm): after the addition of NADH the FAD fluorophore was reduced within milliseconds to FADH2
